Test results reported in patent US9145405B2, “Oxadiazole compound and preparation method thereof, pharmaceutical composition and use thereof” (SHANGHAI JIAO TONG UNIVERSITY, priority 2011, dated 2015).
≈ marks a conversion by molar mass, not a printed value. Where two headings read alike, the source gives them in different places.

How the values were obtained:
Vero cells = test: Toxicity (half toxic concentration) in the anti-Cox_B3 test on Vero cells; format: cell-based
Cox_B3 virus = test: Anti-Cox_B3 test: inhibition of cytopathic effect (CPE) in infected Vero cells, Reed-Muench; format: cell-based; conditions: for IC50: read-out: IC50 (half-inhibitory concentration for viruses)
Excerpt: The present examples verifies experimental results of anti-Cox_B3 of the compounds 1-137of the present invention, Pleconaril, 3-[3,5-dimethyl-4-[5-(3-methy-1,2-oxazolyl)propoxy]phenyl]-5-(trifluonomethyl) -1,2,4-oxadiazole is used as positive control.

[1] = Cox_B3 virus in Vero cells, CPE, Reed-Muench method

Row | Molecule | TC50 (half of the toxic concentration) (Vero cells) [µg/mL] | IC50 (half-inhibitory concentration for viruses) (Cox_B3 virus; [1]) [µg/mL] | TC50 (half of the toxic concentration) (Vero cells; Vero cells, Cox_B3) [µg/mL] | IC50 (Cox_B3 virus; [1]) [µg/mL] | IC50 (Cox_B3 virus; Vero) [µg/mL]
1 | 3-[3,5-dimethyl-4-[2-(3-methyl-1,2,4-thiadiazole-5-thio)ethoxyl]phenyl]-5-(trifluoromethyl)-1,2,4-oxadiazole [Compound 23] | 39.78 | 0.12 |  |  | 
2 | COC(=O)c1cnc(OCCOc2c(C)cc(-c3noc(C)n3)cc2C)c(F)c1 [Compound 103] | 39.55 | 0.07 |  |  | 
3 | Cc1cc(-c2noc(C(F)(F)F)n2)cc(C)c1OCCOC(C)(C)C [Compound 36, 3-[3,5-dimethyl-4-[(2-tert-butoxy)ethoxyl]phenyl]-5-(trifluoromethyl)-1,2,4-oxadiazole] |  |  | 40.12 | 0.13 (≈ 0.363 µM) | 
4 | 3-[3,5-dimethyl-4-[2-(3-methyl-1,2,4-thiadiazole-5-thio)ethoxyl]phenyl]-5-(trifluoromethyl)-1,2,4-oxadiazole [Compound 77] | 38.58 | 0.16 |  |  | 
5 | 2-[2,6-dimethyl-4-[(5-(trifluoromethyl)-1,2,4-oxadiazole-3-yl)phenoxyl]ethoxyl]-3-fluoro-5-methylpyridine [Compound 101] | 37.35 | 0.078 |  |  | 
6 | Cc1cc(-c2noc(C(F)(F)F)n2)cc(C)c1OCCCOc1cnc(-c2noc(C(F)(F)F)n2)cn1 [Compound 135, 2-[5-(trifluoromethyl)-1,2,4-oxadiazole-3-yl]-5-[3-[2,6-dimethyl-4-[5-(trifluoromethyl)-1,2,4-oxadiazole-3-yl]phenoxyl]propoxy]pyrazine] |  |  | 42.18 | 0.038 (≈ 0.0716 µM) | 
7 | Cc1cc(-c2noc(C(F)(F)F)n2)cc(C)c1OCCCOc1ccc(-c2noc(C(F)(F)F)n2)cc1F [Compound 124] | 32.58 | 0.037 |  |  | 
8 | Cc1cc(-c2noc(C(F)(F)F)n2)cc(C)c1OCCOc1cc(C(=O)O)nn1C [Compound 17, 5-[2-[2,6-dimethyl-4-[5-(trifluoromethyl)-1,2,4-oxadiazole-3-yl]phenoxyl]ethoxyl]-1-methyl-1H-pyrazole-3-carboxylic acid] |  |  | 44.39 | 0.07 (≈ 0.164 µM) | 
9 | Cc1cc(-c2noc(C(F)(F)F)n2)cc(C)c1OCCOc1ncc(-c2noc(C(F)(F)F)n2)cc1F [Compound 116, 2-[2-[2,6-dimethyl-4-[5-(trifluoromethyl)-1,2,4-oxadiazole-3-yl]phenoxyl]ethoxyl]-3-fluoro-5-[5-(trifluoromethyl)-1,2,4-oxadiazole-3-yl]-pyridine] |  |  | 39.21 | 0.034 (≈ 0.0637 µM) | 
10 | Cc1nnc(OCCOc2c(C)cc(-c3noc(C(F)(F)F)n3)cc2C)[nH]1 [Compound 24, 3-[2-[2,6-dimethyl-4-[5-(trifluoromethyl)-1,2,4-oxadiazole-3-yl]phenoxyl]ethoxyl]-5-methyl-4H-1,2,4-triazole] |  |  | 42.23 | 0.03 (≈ 0.0783 µM) | 
11 | COC(=O)c1cc(OCCOc2c(C)cc(-c3noc(C(F)(F)F)n3)cc2C)no1 [Compound 4, 3-[2-[2,6-dimethyl-4-[5-(trifluoromethyl)-1,2,4-oxadiazole-3-yl]phenoxyl]ethoxyl]-isoxazole-5-carboxylate] | 35.58 | 0.26 |  |  | 
12 | Cc1cc(OCCOc2c(C)cc(-c3noc(C)n3)cc2C)no1 [Compound 2, 3-[3,5-dimethyl-4-[2-(5-methylisoxazole-3-oxy)ethoxyl]phenyl]-5-methyl-1,2,4-oxadiazole] |  |  | 58.78 | 0.091 (≈ 0.276 µM) | 
13 | Cc1cc(CCCOc2c(C)cc(-c3noc(C(F)(F)F)n3)cc2C)on1 [Pleconaril, 3-[3,5-dimethyl-4-[5-(3-methy-1,2-oxazolyl)propoxy]phenyl]-5-(trifluonomethyl) -1,2,4-oxadiazole, reference compound] |  |  | 17.25 |  | 0.04 (≈ 0.105 µM)
14 | 4-[2,6-dimethyl-4-[(5-(trifluoromethyl)-1,2,4-oxadiazole-3-yl)phenoxyl]ethoxyl]-2-hydroxyl-5-fluoropyrimidine [Compound 53] | 46.89 | 0.056 |  |  | 
15 | Cc1cc(-c2noc(C(F)(F)F)n2)cc(C)c1OCCOc1cc(C(F)(F)F)nn1C [Compound 16, 3-[3,5-dimethyl-4-[2-[1-methyl-3-(trifluoromethyl)-1H-pyrazole-5-oxy]ethoxyl]phenyl]-5-(trifluoromethyl)-1,2,4-oxadiazole] |  |  | 41.38 | 0.09 (≈ 0.2 µM) | 
16 | Cc1cc(-c2noc(C(F)(F)F)n2)cc(C)c1OCCOc1nccc(C(F)(F)F)n1 [Compound 33, 2-[2-[2,6-dimethyl-4-[5-(trifluoromethyl)-1,2,4-oxadiazole-3-yl]phenoxyl]ethoxyl]-4-(trifluoromethyl) pyrimidine] |  |  | 35.28 | 0.12 (≈ 0.268 µM) | 
17 | Cc1cc(-c2noc(C(F)(F)F)n2)cc(C)c1OCCCOC1CCC(C)C(C)C1 (stereo not shown) [Compound 129, 3-[4-[3-[3,4-dimethylcyclohexyloxy]propoxy]-3,5-dimethylphenyl]-5-(trifluoromethyl)-1,2,4-oxadiazole] |  |  | 35.46 |  | 0.025 (≈ 0.0586 µM)
18 | 3-[3-[2,6-dimethyl-4-[5-(trifluoromethyl)-1,2,4-oxadiazole-3-yl]phenoxyl]propoxy]isoxazole-5-carboxylate [Compound 61] | 37.58 | 0.23 |  |  | 
19 | Cc1c[nH]c(OCCOc2c(C)cc(-c3noc(C(F)(F)F)n3)cc2C)n1 [Compound 12, 3-[3,5-dimethyl-4-[2-(4-methylimidazole-2-oxy)ethoxyl]phenyl]-5-(trifluoromethyl)-1,2,4-oxadiazole] |  |  | 40.27 | 0.12 (≈ 0.314 µM) | 
20 | 3-[2-(2,6-dimethyl-4-[(5-(trifluoromethyl)-1,2,4-oxadiazole-3-yl)phenoxyl]ethoxyl]-2-formamide-6-fluoropyrazine [Compound 55] |  | 0.16 | 36.66 |  | 
21 | 2-[2,6-dimethyl-4-[(5-(trifluoromethyl)-1,2,4-oxadiazole-3-yl)phenoxyl]ethoxyl]-3-fluoro-5-methylpyridine [Compound 47] | 39.56 | 0.082 |  |  | 
22 | COC(=O)c1cnc(OCCOc2c(C)cc(-c3noc(C(F)(F)F)n3)cc2C)c(F)c1 [Compound 49, 6-[2,6-dimethyl-4-[(5-(trifluoromethyl)-1,2,4-oxadiazole-3-yl)phenoxyl]ethoxyl]-5-fluoro-3-pyridinecarboxylate] | 35.36 | 0.096 |  |  | 
23 | Cc1cc(-c2noc(C(F)(F)F)n2)cc(C)c1OCCCOc1ncc(-c2noc(C(F)(F)F)n2)cn1 [Compound 136, 2-[3-[2,6-dimethyl-4-[5-(trifluoromethyl)-1,2,4-oxadiazole-3-yl]phenoxyl]propoxy]-5-[5-(trifluoromethyl)-1,2,4-oxadiazole-3-yl]-pyrimidine] |  |  | 41.23 | 0.04 (≈ 0.0754 µM) | 
24 | 6-[2,6-dimethyl-4-[(5-(trifluoromethyl)-1,2,4-oxadiazole-3-yl)phenoxyl]ethoxyl]-5-fluoro-2-hydroxyl-3-cyanopyridine [Compound 48] | 42.12 | 0.15 |  |  | 
25 | 4-[2,6-dimethyl-4-[(5-(trifluoromethyl)-1,2,4-oxadiazole-3-yl)phenoxyl]ethoxyl]-3-fluorobenzonitrile [Compound 38] | 45.28 | 0.048 |  |  | 
26 | 6-[2,6-dimethyl-4-[(5-(trifluoromethyl)-1,2,4-oxadiazole-3-yl)phenoxyl]ethoxyl]-5-methylpyridine [Compound 105] | 43.18 | 0.13 |  |  | 
27 | COc1ccc(OCCOc2c(C)cc(-c3noc(C(F)(F)F)n3)cc2C)c(F)c1 [Compound 40, 3-[3,5-dimethyl-4-[(2-fluoro-4-methoxyphenoxyl)ethoxyl]phenyl]-5-(trifluoromethyl)-1,2,4-oxadiazole] |  |  | 45.39 | 0.044 (≈ 0.103 µM) | 
28 | 6-[2,6-dimethyl-4-[(5-(trifluoromethyl)-1,2,4-oxadiazole-3-yl)phenoxyl]ethoxyl]-5-trifluoromethylpyridine [Compound 52] | 41.28 | 0.13 |  |  | 
29 | CCON=Cc1ccc(OCCOc2c(C)cc(-c3noc(C(F)(F)F)n3)cc2C)cn1 [Compound 44, 6-[2,6-dimethyl-4-[(5-(trifluoromethyl)-1,2,4-oxadiazole-3-yl)phenoxyl]ethoxyl]pyridine-2-oxy-ethylketoxime] | 34.35 | 0.078 |  |  | 
